Patent publication US9765075B2, “Substituted bridged urea analogs as sirtuin modulators” (GLAXOSMITHKLINE LLC, priority 2013, dated 2017)
Like-named read-outs stand apart in the source and are kept apart here.

Target: T1, SIRT1 (Homo sapiens, UniProt Q96EB6)
T1 sequence (Q96EB6 1-747): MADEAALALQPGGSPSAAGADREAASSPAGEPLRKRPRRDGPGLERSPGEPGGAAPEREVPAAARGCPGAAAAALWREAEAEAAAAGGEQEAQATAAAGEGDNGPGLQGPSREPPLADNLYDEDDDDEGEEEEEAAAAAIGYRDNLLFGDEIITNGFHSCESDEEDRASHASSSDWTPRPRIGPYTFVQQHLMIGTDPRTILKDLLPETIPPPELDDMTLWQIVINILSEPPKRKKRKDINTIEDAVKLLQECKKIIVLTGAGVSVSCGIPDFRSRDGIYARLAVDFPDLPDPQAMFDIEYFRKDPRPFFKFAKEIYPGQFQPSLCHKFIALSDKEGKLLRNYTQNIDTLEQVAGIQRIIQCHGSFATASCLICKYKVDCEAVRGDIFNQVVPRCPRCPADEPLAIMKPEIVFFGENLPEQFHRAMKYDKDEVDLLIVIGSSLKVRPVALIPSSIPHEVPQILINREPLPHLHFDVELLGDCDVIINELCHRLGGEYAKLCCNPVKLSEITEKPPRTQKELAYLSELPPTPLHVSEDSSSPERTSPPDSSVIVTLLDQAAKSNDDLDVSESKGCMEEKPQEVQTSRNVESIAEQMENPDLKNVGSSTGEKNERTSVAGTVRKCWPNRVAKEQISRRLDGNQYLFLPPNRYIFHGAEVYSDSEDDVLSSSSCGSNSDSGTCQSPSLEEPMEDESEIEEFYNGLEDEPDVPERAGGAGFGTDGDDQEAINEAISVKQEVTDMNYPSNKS
Test: Trp mass spectrometry assay (SIRT1 activation)
Assay type: biochemical
Settings: for Emax: percent maximum fold activation of SIRT1, read-out: Tryp % Fold Act
Excerpt: Mass spectrometry based assays were used to identify modulators of SIRT1 activity. […] The peptide was labeled with the fluorophore 5TMR (excitation 540 nm/emission 580 nm) at the C-terminus. The sequence of the peptide substrate was based on p53 with several modifications. In addition, the methionine residue naturally present in the sequence was replaced with the norleucine because the methionine may be susceptible to oxidation during synthesis and purification. The Trp based assay utilized a peptide having an amino acid residues as follows: Ac-R-H-K-K(Ac)-W-NH2 (SEQ ID NO: 2).
The Trp mass spectrometry assay was conducted as follows. 0.5 μM peptide substrate and 120 μM βNAD^+ were incubated with 10 nM SIRT1 for 25 minutes at 25° C. in a reaction buffer (50 mM HEPES pH 7.5, […] NaCl, 1 mM DTT, 0.05% BSA). The SIRT1 protein was obtained by cloning the SirT1 gene into a T7-promoter containing vector, which was then expressed in BL21(DE3) bacterial cells and purified as described in further detail below. Test compound was added at varying concentrations to this reaction mixture and the resulting reactions were monitored. After the 25 minute incubation with SIRT1, 10 μL of 10% formic acid was added to stop the reaction. The resulting reactions were sealed and frozen for later mass spec analysis. The relative SIRT1 activity was then determined by measuring the amount of 0-acetyl-ADP-ribose (OAADPR) formed (or, alternatively, the amount of deacetylated Trp peptide generated) by the NAD-dependent sirtuin deacetylation reaction in the presence of varying concentrations of the test compound versus control reactions lacking the test compound. The degree to which the test agent activated deacetylation by SIRT1 was expressed as EC1.5 (i.e., the concentration of compound required to increase SIRT1 activity by 50% over the control lacking test compound), and Percent Maximum Activation (i.e., the maximum activity relative to control (100%) obtained for the test compound).
A control for activation of sirtuin activity was conducted using 10 nM of sirtuin protein, with 1 μL of DMSO in place of compound, to determine the amount of deacetylation of the substrate at a given time point within the linear range of the assay. This time point was the same as that used for test compounds and, within the linear range, the endpoint represents a change in velocity.
For the above assay, SIRT1 protein was expressed and purified as follows. The SirT1 gene was cloned into a T7-promoter containing vector and transformed into BL21(DE3). The protein was expressed by induction with 1 mM IPTG as an N-terminal His-tag fusion protein at 18° C. overnight and harvested at 30,000×g. Cells were lysed with lysozyme in lysis buffer (50 mM Tris-HCl, 2 mM Tris[2-carboxyethyl] phosphine (TCEP), 10 μM ZnCl2, 200 mM NaCl) and further treated with sonication for 10 min for complete lysis. The protein was purified over a Ni-NTA column (Amersham) and fractions containing pure protein were pooled, concentrated and run over a sizing column (Sephadex S200 26/60 global). The peak containing soluble protein was collected and run on an Ion-exchange column (MonoQ). Gradient elution (200 mM-500 mM NaCl) yielded pure protein. This protein was concentrated and dialyzed against dialysis buffer (20 mM Iris-HCl, 2 mM TCEP) overnight. The protein was aliquoted and frozen at −80° C. until further use.

[1] = concentration of test compound that results in 150% activation of SIRT1, Trp peptide substrate
[2] = Trp mass spectrometry assay, EC1.5 = concentration of test compound that results in 150% activation of SIRT1
[3] = Trp mass spectrometry assay, EC1.5 = concentration giving 150% activation of SIRT1

Row | SMILES | Tryp AVG EC1.5 (μM) [1] | Emax (Trp peptide substrate) | Tryp AVG EC1.5 (μM) [2] | Emax (Trp mass spectrometry assay) | Tryp AVG EC1.5 (μM) [3]
1 | O=C(Nc1ccccn1)N1c2nc(N3CCCC(C(F)(F)F)C3)ccc2N2CCC[C@@H]1C2 (stereo partly drawn) [Example 300] | C (EC1.5>25 μM) | < 150% | – | – | –
2 | O=C(Nc1cncc(F)c1)N1c2nc(-c3cncc(C(F)(F)F)c3)ccc2N2CCC[C@H]1C2 [Example 411] | A (EC1.5<1 μM) | ≥ 150% | – | – | –
3 | Cc1csc(NC(=O)N2c3nc(N4CCCC(C(F)(F)F)C4)ccc3N3CCC[C@@H]2C3)n1 (stereo partly drawn) [Example 312] | B (EC1.5 1-25 μM) | ≥ 150% | – | – | –
4 | Cc1cc(OCC(O)CO)nc(NC(=O)N2c3nc(-c4cccc(C(F)(F)F)c4)ccc3N3CC[C@H]2C3)n1 (stereo partly drawn) [Example 26] | – | – | B (EC1.5 1-25 μM) | ≥ 150% | –
5 | O=C(Nc1ccncn1)N1c2nc(N3CCCC(C(F)(F)F)C3)ccc2N2CCC[C@H]1C2 (stereo partly drawn) [Example 294] | B (EC1.5 1-25 μM) | ≥ 150% | – | – | –
6 | O=C(NCCCCc1ccccc1)N1c2nc(-c3cccc(C(F)(F)F)c3)ccc2N2CC[C@H]1C2 [Example 600] | B (EC1.5 1-25 μM) | ≥ 150% | – | – | –
7 | CCC(=O)N1CCC(c2cccc(NC(=O)N3c4nc(-c5cccc(C(F)(F)F)c5)ccc4N4CC[C@H]3C4)c2)C1 (stereo partly drawn) [Example 636] | – | – | – | ≥ 150% | A (EC1.5<1 μM)
8 | Cc1nc(NC(=O)N2c3nc(-c4cccc(C(F)(F)F)c4)ccc3N3CC[C@@H]2C3)sc1C [Example 201] | – | – | B (EC1.5 1-25 μM) | ≥ 150% | –
9 | O=C(NCCN1CCOCC1)N1c2nc(-c3cccc(C(F)(F)F)c3)ccc2N2CC[C@H]1C2 [Example 616] | B (EC1.5 1-25 μM) | ≥ 150% | – | – | –
10 | Cc1nc(NC(=O)N2c3nc(-c4cncc(F)c4)ccc3N3CCC2CC3)sc1C [Example 577] | B (EC1.5 1-25 μM) | ≥ 150% | – | – | –
11 | Cc1nc(NC(=O)N2c3nc(N4CCCC(C(F)(F)F)C4)ccc3N3CCC[C@H]2C3)sc1C (stereo partly drawn) [Example 298] | B (EC1.5 1-25 μM) | ≥ 150% | – | – | –
12 | CC(=O)N1CCCN(c2ccc3c(n2)N(C(=O)Nc2ccncn2)[C@H]2CCCN3C2)CC1 [Example 434] | C (EC1.5>25 μM) | < 150% | – | – | –
13 | CC(=O)NCc1ccc(NC(=O)N2c3nc(-c4cccc(C(F)(F)F)c4)ccc3N3CCC[C@H]2C3)cc1 [Example 790] | – | – | – | ≥ 150% | A (EC1.5<1 μM)

Continued, values first:

Row | Tryp AVG EC1.5 (μM) [1] | Emax (Trp peptide substrate) | Tryp AVG EC1.5 (μM) [2] | Emax (Trp mass spectrometry assay) | Tryp AVG EC1.5 (μM) [3] | SMILES
14 | A (EC1.5<1 μM) | ≥ 150% | – | – | – | O=C(Nc1cnccn1)N1c2nc(-c3cccc(N4CC[C@H](F)C4)c3)ccc2N2CC[C@H]1C2 [Example 268]
15 | – | – | B (EC1.5 1-25 μM) | ≥ 150% | – | O=C(Nc1ccncn1)N1c2nc(-c3cccc(C(F)(F)F)c3)ccc2N2CC[C@@H]1C2 [Example 202]
16 | A (EC1.5<1 μM) | ≥ 150% | – | – | – | COc1cc(NC(=O)N2c3nc(-c4cccc(Cl)c4)ccc3N3CCC[C@H]2C3)ncn1 [Example 408]
17 | A (EC1.5<1 μM) | ≥ 150% | – | – | – | O=C(Nc1ccccn1)N1c2nc(-c3cncc(C(F)(F)F)c3)ccc2N2CC[C@H]1C2 [Example 316]
18 | C (EC1.5>25 μM) | ≥ 150% | – | – | – | Cc1ccncc1-c1ccc2c(n1)N(C(=O)Nc1cccnn1)[C@H]1CCCN2C1 [Example 520]
19 | – | – | B (EC1.5 1-25 μM) | ≥ 150% | – | COc1nccc(NC(=O)N2c3nc(-c4cccc(C(F)(F)F)c4)ccc3N3CCC2CC3)n1 [Example 169]
20 | – | – | – | < 150% | C (EC1.5>25 μM) | O=C(Nc1cnccn1)N1c2nc(-c3cccc(Cl)c3)ccc2N2C[C@@H](O)[C@H]1C2 [Example 678]
21 | A (EC1.5<1 μM) | ≥ 150% | – | – | – | COc1cc(NC(=O)N2c3nc(-c4cccc(N(C)C)c4)ccc3N3CCC[C@H]2C3)ncn1 [Example 385]
22 | B (EC1.5 1-25 μM) | ≥ 150% | – | – | – | O=C(Nc1ccc(F)cn1)N1c2nc(-c3cccc(N4CCC(C(F)(F)F)C4)c3)ccc2N2CC[C@H]1C2 (stereo partly drawn) [Example 321]
23 | B (EC1.5 1-25 μM) | ≥ 150% | – | – | – | O=C(Nc1cnccn1)N1c2nc(-c3cccc(Cl)c3)cc(O)c2N2CC[C@H]1C2 [Example 443]
24 | B (EC1.5 1-25 μM) | ≥ 150% | – | – | – | O=C(Nc1ccncn1)N1c2nc(-c3cncc(Cl)c3)ccc2N2CCC1CC2 [Example 576]
25 | A (EC1.5<1 μM) | ≥ 150% | – | – | – | O=C(Nc1cncc(F)c1)N1c2nc(-c3cccc(N4CC[C@@H](F)C4)c3)ccc2N2CC[C@H]1C2 [Example 282]
26 | A (EC1.5<1 μM) | ≥ 150% | – | – | – | O=C(Nc1ccc(F)cn1)N1c2nc(-c3cncc(Cl)c3)ccc2N2CCC[C@H]1C2 [Example 401]
27 | – | – | – | ≥ 150% | A (EC1.5<1 μM) | NC(=O)c1ccc(NC(=O)N2c3nc(-c4cccc(C(F)(F)F)c4)ccc3N3CC[C@H]2C3)cc1 [Example 659]
28 | – | – | – | ≥ 150% | A (EC1.5<1 μM) | O=C(Nc1ccncc1)N1c2nc(-c3cccc(C(F)(F)F)c3)ccc2N2CC[C@@H]1C2 [Example 824]
29 | A (EC1.5<1 μM) | ≥ 150% | – | – | – | NCc1ccc(NC(=O)N2c3nc(-c4cccc(C(F)(F)F)c4)ccc3N3CCC[C@H]2C3)cc1 [444 (4)]
30 | B (EC1.5 1-25 μM) | ≥ 150% | – | – | – | O=C(NCc1ccccc1)N1c2nc(-c3cccc(C(F)(F)F)c3)ccc2N2CC[C@H]1C2 [Example 597]
31 | – | – | – | ≥ 150% | – | O=C(Nc1ccncc1F)N1c2nc(-c3cccc(C(F)(F)F)c3)ccc2N2CCC[C@H]1C2 [Example 42]
32 | – | – | – | ≥ 150% | A (EC1.5<1 μM) | O=C(Nc1ccccn1)N1c2nc(-c3cccc(C(F)(F)F)c3)ccc2N2CCC[C@H]1C2 [Example 820]
